The data set can be described thus: gradient 5% acetonitrile 3 min, to 50% in 2 min, to 85% in 15 min, held 3 min, 100 µL/min. The following applies: column: Zorbax Extend-C18 2.1 x 50 mm; eluents: water / acetonitrile, 0.1% formic acid. Summed up: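 Retention time was recorded from adduct peaks, which were picked computationally and each inspected manually. Pure standards ran in mixtures of ~100 molecules on HPLC coupled to a quadrupole time-of-flight mass spectrometer, in positive and negative ionization mode, through a Zorbax Extend-C18 column (2.1 × 50 mm, 1.8 μm) at 100 μL/min. Eluents were water and acetonitrile, each with 0.1% formic acid.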
For the molecule `CC(=O)N1CCc2c(sc(NC(=O)c3cc(=O)c4ccccc4o3)c2C#N)C1`, the RP-LC retention time is 670 s. Then `CCN1CCC(n2cc(CNc3cc(Cl)c4ncc(C#N)c(Nc5ccc(F)c(Cl)c5)c4c3)nn2)CC1`, with 727 s; and `Cn1nc(CN2CCCC2)c2c1CCN(S(=O)(=O)c1ccccc1C(F)(F)F)C2`, with 655 s. In turn, `CCn1nccc1-c1cccc(-c2noc(CCS(=O)(=O)c3ccc(C)cc3)n2)c1` returned an RP-LC retention time of 993 s. Then `Cc1ccc2c(c1)N(C(=O)Cn1ccc3ccn(Cc4ccccc4C)c3c1=O)CCO2`, with 1090 s; and `O=C(NCc1csc(-c2ccccc2)n1)C1CCN(S(=O)(=O)c2ccc(Cl)s2)CC1`, with 995 s; and `COc1cc(NC(=O)N2CC(c3nc(C(C)C)nn3C)C2)cc(OC)c1`, with 662 s.

On to `CCn1nc(CNC(=O)C2CCC2)c2ccccc21`, for which the RP-LC retention time worked out at 748 s. Molecule `O=C1NC2(CCN(C(=O)c3ccc(F)cc3)CC2)Nc2cc(Cl)ccc21` registered an RP-LC retention time of 742 s. Then `CSc1ccc(CNC(=O)Cn2c(C)cc(C)c(C#N)c2=O)cc1`, with 698 s; and `Cc1cn(C)c(CC(=O)NCCN2CCCc3ccccc32)c1C(=O)O`, with 792 s; and `O=C(CN1CC(c2nc(-c3cccnc3)no2)C1)Nc1cc(C(F)(F)F)ccc1Cl`, with 634 s. Then `COC(=O)C1=CN(c2ccc(C)c(C)c2)c2ccccc2S1(=O)=O`, with 941 s; and `CCCNc1cc(N2CCC(CCC(=O)NCc3ccccc3F)CC2)ncn1`, with 680 s. Then `COc1ccccc1NC(=O)NC1CCN(c2cc(C)cc(C)c2)C1=O` (stereo not given), with 881 s. `CC1CCc2nn(CC(=O)Nc3c(F)c(F)c(F)c(F)c3F)cc2C1` (stereo not given) showed an RP-LC retention time of 934 s. Then `Cc1ccc(NC(=O)C2CCCN2S(=O)(=O)c2cc3c(cc2C)NC(=O)CO3)cc1` (stereo not given), with 758 s. Molecule `Cc1nc2cc(-c3noc(-c4cccc(F)c4)n3)ccc2n(C)c1=O` came in with an RP-LC retention time of 1020 s. Consider `Cc1cc(=O)n(CC(=O)Nc2cc(F)cc(F)c2)c(N2CCOCC2)n1`, for which the RP-LC retention time was 724 s.

In turn, `CCc1nnc(-c2ccc(S(=O)(=O)N3CCN(C4CCCCC4)CC3)o2)o1` had an RP-LC retention time of 637 s. Then `COc1ccc2c(c1)C1CC(C)(NC(=O)C1S(=O)(=O)c1ccc(C)cc1)O2` (stereo not given), with 893 s. Then `CC1CN(C(=O)Cn2cc(SCC(=O)NC3CCCCC3)c3ccccc32)CC(C)O1` (stereo not given), with 879 s; and `Cc1ccccc1NC(=O)NCCc1nc2cccnc2n1C1CCCC1`, with 708 s. Regarding `CC(C)Oc1ccccc1Cn1c(=O)oc2ccccc21`, the RP-LC retention time was determined as 1010 s. Molecule `O=C(CCc1csc(NC(=O)NC2CCCCC2)n1)NCc1cccs1` returned an RP-LC retention time of 711 s. `CCOc1ccccc1NC(=O)N1CCC2(CC1)NC(=O)c1ccccc1N2C` came in with an RP-LC retention time of 807 s. `COc1ccc(-c2nnc(-c3ccccc3Cl)o2)cc1S(=O)(=O)N(C)C` showed an RP-LC retention time of 895 s. Next, `COC(=O)c1cc(C)nc2c1c(=O)n(Cc1c(F)cccc1Cl)c(=O)n2C`: 965 s; `CC(NC(=O)C1CCN(C(=O)c2ncn3c2COC(c2ccc(F)cc2)C3)CC1)c1ccc(F)cc1` (stereo not given): 790 s; `COc1ccc2c(c1)-c1nc(NC(=O)c3ccc(OC)c(Br)c3)sc1CC2`: 1220 s. Then `O=C(NCCC1CCCCN1S(=O)(=O)c1ccccc1)C(=O)Nc1ccccc1Cl` (stereo not given), with 1060 s. The molecule `Cc1cc(N(C)C)nc(N2CCN(S(=O)(=O)c3ccc(Br)cc3)CC2)n1` yielded an RP-LC retention time of 733 s. Next, `Nc1cc(C2CCN(C(=O)Nc3ccc(F)cc3F)CC2)no1`: 666 s; `CCN(CC)c1ccc(C(=O)O)cc1NC(=O)c1cccs1`: 835 s. In the case of `CC1OC2(CS1)CN1CCC2CC1` (stereo not given), the RP-LC retention time came out at 619 s. Then `Nc1cccc(-c2nc3ccccc3[nH]2)c1`, with 532 s.

`Cc1ccn2cc(C(=O)NCc3ccc(N4CCOCC4)cc3)nc2c1`: the RP-LC retention time was 591 s. In the case of `CCc1nc(-c2csc(S(=O)(=O)N3CCC(C(=O)Nc4ccc(F)cc4)CC3)c2)no1`, the RP-LC retention time is 962 s. `O=C(c1ccccc1F)N1CCC(n2nc(-c3ccsc3)ccc2=O)CC1` yielded an RP-LC retention time of 783 s.

In turn, `Cc1cccc(C(=O)NC2CCN(c3cc(-c4cccs4)[nH]n3)C2)c1` (stereo not given) gave an RP-LC retention time of 741 s. Then `COc1ccc(N2CC(c3noc(-c4ccc(F)cc4)n3)CC2=O)cc1` (stereo not given), with 926 s; and `CCn1nc(C)c2c(-c3ccccc3)cc(OC(C)C(=O)Nc3ccc4c(c3)OCO4)nc21` (stereo not given), with 1030 s. Then `CCOC(=O)C1CCN(C(=O)C2CCc3nc(N(CC)CC)ncc3C2)CC1` (stereo not given), with 630 s; and `CN1CCCC1c1nc(C2CN(C(=O)CCc3nc4ccccc4s3)C2)no1` (stereo not given), with 607 s. Then `COCCC(=O)N1CCCN(C2=NS(=O)(=O)C(c3ccc(C(C)C)cc3)=C2C)CC1`, with 817 s; and `Cc1nc(-c2cc(S(=O)(=O)NC(C)Cc3ccco3)c(C)s2)sc1C` (stereo not given), with 1060 s.

In turn, `COCCN1C(=O)c2ccccc2C(C(=O)NCCN2CCOCC2)C1c1ccc(F)cc1` (stereo not given) showed an RP-LC retention time of 628 s. Next, `COc1ccc(Cl)cc1NC(=O)C(=O)NCC1(O)CCOCC1`: 706 s; `CCCNC(=O)C1CCN(c2ccc(SCC(=O)NCc3ccc(C)c(C)c3)nn2)CC1`: 663 s; `Cc1noc2nc(C)n(CC(=O)Nc3cccc(C(F)(F)F)c3)c(=O)c12`: 879 s.

Molecule `CCC(C)NC(=O)N1CCc2c(c(-c3nc(C)no3)nn2C)C1` (stereo not given) showed an RP-LC retention time of 673 s. In turn, `CC(=O)N(Cc1nn(C)c2c1CN(Cc1ccc(OCC(N)=O)cc1)CC2)c1ccccc1` registered an RP-LC retention time of 585 s. `CCC(=O)NCc1nc2c(n1C)CN(S(=O)(=O)c1ccc(F)c(C)c1)CC2` yielded an RP-LC retention time of 575 s. On to `O=C(c1ccc(S(=O)(=O)c2ccc(Br)cc2)nc1)N1CCN(c2ncccn2)CC1`, for which the RP-LC retention time is 835 s.

Turning to `CCOC(=O)c1[nH]c(C)c(CCC(=O)NCCN2CCOCC2)c1C`, the RP-LC retention time worked out at 597 s. Then `O=C(C1CCN(c2cc(N3CCCCC3)ncn2)CC1)N1CCSCC1`, with 628 s. In turn, `COc1ccc(-c2noc(C3CC(=O)N(c4cc(Cl)ccc4OC)C3)n2)cc1OC` (stereo not given) yielded an RP-LC retention time of 884 s. As for `CCc1nc2sc(C(C)C)nn2c1S(=O)(=O)N1CCCC1`, the RP-LC retention time turned out to be 945 s. Next, `CCc1nc2cc(-c3noc(Cc4ccc(NC(C)=O)cc4)n3)ccc2o1`: 916 s; `CCC1(O)CCC12CCN(C(=O)CCC1CCCC1)CC2` (stereo not given): 924 s.

Values taken from the METLIN SMRT retention time set (Domingo-Almenara et al. 2019).
